Read-outs that look alike come from different tables or passages of the source.
Assays:
[1] = system: NCI-H522 cells; experiment: Cytotoxicity (methylene blue cell viability), NCI-H522; format: cell-based, human; details: for IC50: Homo sapiens
Experimental: (§1) Having synthesized the CETZOLE analogs, their cytotoxic activity was evaluated. […] NCI-H522 RV-GFP is the corresponding control with RV-GFP tag, but without SLC7A11 overexpression. […] The cytotoxicity screening was conducted as described previously.
(§2) Cell lines were cultured in a humidified atmosphere containing 10% CO2 in Dulbecco's modified Eagle's medium (Mediatech, Inc) supplemented with 10% fetal bovine serum (Atlanta Biologicals). Cell types used MEFs, HT1080 (human fibrosarcoma cells), NARF2 (osteosarcoma), WI-38 (human embryonic lung fibroblast), MDA MB 231 (breast cancer), HCT-116 (human colon), and NCI-H522 (Non-Small Cell Lung Cancer) cell lines. To determine viability throughout these examples, 5,000 cells were plated per well of a 96-well plate and drugs were added 1 day later. Cells were stained 1 to 3 days later with a saturated solution of methylene blue in 50% ethanol. Plates were rinsed and retained dye was quantified by spectrophotometry. Absorbance was normalized to DMSO and given as 1 or 100% for cell viability. Results are representative of at least two independent experiments. Statistical significance was assessed using the Student's t test. All commercially available chemicals were obtained from Cayman Chemicals unless otherwise noted.

[2] = system: HT-1080 cells; experiment: Cytotoxicity (methylene blue cell viability), HT-1080; format: cell-based, human; details: Homo sapiens
Experimental: as §1, §2

[3] = system: MDA-MB-231 cells; experiment: Cytotoxicity (methylene blue cell viability), MDA-MB-231; format: cell-based; details: Homo sapiens
Experimental: as §1, §2

[4] = system: NCI-H522 GFP-SLC7A11 #8 cells; experiment: Cytotoxicity (methylene blue cell viability), NCI-H522 clone overexpressing GFP-SLC7A11; format: cell-based, human; details: Homo sapiens; Table 1; NCI-H522 clone overexpressing GFP-tagged SLC7A11; read-out: Half maximal inhibitory concentration (IC50), NCI-H522 GFP-SCL7A11 #8
Experimental: as §1, §2

[5] = system: NCI-H522 RV-GFP cells; experiment: Cytotoxicity (methylene blue cell viability), NCI-H522 RV-GFP control clone; format: cell-based, human; details: Homo sapiens, NCI-H522; Table 1; control clone with RV-GFP tag; read-out: Half maximal inhibitory concentration (IC50), NCI-H522 Rv-GFP
Experimental: as §1, §2

[6] = system: NARF2 cells; experiment: Cytotoxicity (methylene blue cell viability), NARF2; format: cell-based, human; details: Homo sapiens; Table 1; NARF2 osteosarcoma cells; read-out: Half maximal inhibitory concentration (IC50), NARF2
Experimental: as §1, §2

[7] = system: WI38 cells; experiment: Cytotoxicity on normal cell line WI38; format: cell-based, human; details: Homo sapiens, WI-38; Table 2; lung tissue fibroblast; read-out: Half maximal inhibitory concentration (IC50), Normal Cell Line WI38
Experimental: (§3) To determine cytotoxicity at a therapeutically more relevant concentration, cells were treated at a single concentration of […] (FIG. 12).
as §2

[8] = system: MEFs (Mouse Embryonic Fibroblasts); experiment: Cytotoxicity on normal cell line MEFs; format: cell-based; details: Fibroblast; Table 2; Mouse Embryonic Fibroblasts; read-out: Half maximal inhibitory concentration (IC50), Normal Cell Line Mefs
Experimental: as §3, §2

[9] = system: NCI-H522 and HT-1080 cancer cell lines, WI38 and MEFs normal cell lines; experiment: Selective cytotoxicity assay at a single concentration; format: cell-based; parameters: dose or concentration left out as unconfirmed; details: NCI-H522, HT-1080, WI38, MEFs
Experimental: Overall, WI38 cells were the most tolerant to the treatment, whereas MEF cells were partially tolerant and relatively less sensitive than both NCI-H522 and HT-1080 cells. To determine cytotoxicity at a therapeutically more relevant concentration, cells were treated at a single concentration of […] (FIG. 12).
as §2, with “noted. Compound CETZOLE 1 and the analogs were synthesized as highlighted.” for “noted.”

[10] = system: NCI-H522, NCI-H522 GFP-SLC7A11 #8, NCI-H522 RV-GFP, HT-1080, NARF2 and MDA-MB 231 cell lines; experiment: Cytotoxicity screening across the tested cell lines; format: cell-based; details: summary over all tested cell lines; read-out: IC50 values against the tested cell lines
Experimental: as §1, §2

[11] = system: protein bands between 25 kD to 38 kD; experiment: Competitive binding assay against probe PPd (in-gel fluorescence); details: 20 μM concentration; bands 25 kD to 38 kD
[12] = NCI-H522, Table 3, probes and negative controls, read-out: IC50, NCI-H522
[13] = HT-1080, Table 3, probes and negative controls, read-out: IC50, HT-1080
[14] = MDA-MB-231, Table 3, probes and negative controls, read-out: IC50, MDA-MB-231
[15] = NCI-H522, Table 2, read-out: Half maximal inhibitory concentration (IC50), Cancer Cell Line NCI-H522
[16] = Table 1, NCI-H522 cancer cell line, read-out: Half maximal inhibitory concentration (IC50), NCI-H522
[17] = HT-1080, Table 2, read-out: Half maximal inhibitory concentration (IC50), Cancer Cell Line HT1080
[18] = Table 1, HT-1080 fibrosarcoma cell line, read-out: Half maximal inhibitory concentration (IC50), HT-1080
[19] = Table 1, MDA-MB-231 breast cancer cell line, read-out: Half maximal inhibitory concentration (IC50), MDA-MB-231

Compound | IC50 [1, 12] | IC50 [2, 13] | IC50 [3, 14] | IC50 [1, 16] | IC50 [4] | IC50 [5] | IC50 [2, 18] | IC50 [6] | IC50 [3, 19] | other results
C#Cc1nc(C2=C(C)C(NC(=O)CCCC[C@@H]3SC[C@@H]4NC(=O)N[C@@H]43)CC2)cs1 (stereo partly drawn) [PPb, N-(3-(2-Ethynylthiazol-4-yl)-2-methylcyclopent-2-en-1-yl)-5-((3aS,4S,6aR)-2-oxohexahydro-1H-thieno[3,4-d]imidazol-4-yl)pentanamide] | 17.9 ± 3.98 µM | 7.91 ± 1.9 µM | > 20 µM |  |  |  |  |  |  | IC50 ([1]; NCI-H522, unit inferred, read-out: IC50 on NCI-H522 cell line): 17.9 ± 3.98 µM; activity relative to CETZOLE 1 ([1]; NCI-H522 cell line): five-fold less active
CC1=C(c2csc(Br)n2)CCC1NC(=O)CCCC[C@@H]1SC[C@@H]2NC(=O)N[C@@H]21 (stereo partly drawn) [NPb, N-(3-(2-Bromothiazol-4-yl)-2-methylcyclopent-2-en-1-yl)-5-((3aS,4S,6aR)-2-oxohexahydro-1H-thieno[3,4-d]imidazol-4-yl)pentanamide] | > 20 µM | > 20 µM | > 20 µM |  |  |  |  |  |  | 
C#CCO/N=C1\CC(c2csc(Br)n2)=C(C)C1O (stereo not drawn) [NPd, 4-(2-Bromothiazol-4-yl)-2-hydroxy-3-methylcyclopent-3-en-1-one O-prop-2-yn-1-yl oxime] | > 20 µM | > 20 µM | > 20 µM |  |  |  |  |  |  | 
C#Cc1nc(C2=C(C)C(OC(=O)CCC)/C(=N/OC(=O)CCC)C2)cs1 (stereo not drawn) [compound 20c, (E)-5-((Butyryloxy)imino)-3-(2-ethynylthiazol-4-yl)-2-methylcyclopent-2-en-1-yl butyrate] |  |  |  | 0.13 ± 0.09 µM | 1.93 ± 0.8 µM | 0.28 ± 0.13 µM | 0.19 ± 0.09 µM | 5.95 ± 1.8 µM | 0.83 ± 0.15 µM | IC50 [1, 15]: 0.13 ± 0.09 µM; IC50 [2, 17]: 0.19 ± 0.09 µM; IC50 [7]: 1.19 ± 0.3 µM; IC50 [8]: 0.79 ± 0.04 µM; cell death at a single concentration [9]: killed only the cancer cell lines NCI-H522 and HT-1080
C#Cc1nc(C2=C(C)C(=O)/C(=N/O)C2)cs1 [compound 14, (E)-3-(2-Ethynylthiazol-4-yl)-5-(hydroxyimino)-2-methylcyclopent-2-en-1-one] |  |  |  | > 20 µM | > 20 µM | > 20 µM | 5.29 ± 2.6 µM | > 20 µM | 8.05 ± 0.63 µM | IC50 [10]: > 20 µM
CCN(CC)c1ccc2cc(C(=O)NC3CCC(c4csc(Br)n4)=C3C)c(=O)oc2c1 (stereo not drawn) [NPa, N-(3-(2-Bromothiazol-4-yl)-2-methylcyclopent-2-en-1-yl)-7-(diethylamino)-2-oxo-2H-chromene-3-carboxamide] | > 20 µM | > 20 µM | > 20 µM |  |  |  |  |  |  | 
C#Cc1nc(C2=C(C)C(OC(=O)CCCCCCC)/C(=N/OC(=O)CCCCCCC)C2)cs1 (stereo not drawn) [compound 20e, (E)-3-(2-Ethynylthiazol-4-yl)-2-methyl-5-((octanoyloxy)imino)cyclopent-2-en-1-yl octanoate] |  |  |  | > 20 µM | > 20 µM | > 20 µM | > 20 µM | > 20 µM | 19.1 ± 2.8 µM | IC50 [10]: > 20 µM
C#Cc1nc(C2=C(C)C(=O)/C(=N/OC(C)=O)C2)cs1 [compound 18] |  |  |  | 11 ± 1.53 µM | > 20 µM | > 20 µM | > 20 µM | > 20 µM | 18.5 ± 1.7 µM | IC50 [10]: > 20 µM
Cc1onc(C(=O)N2CCN(C(c3ccc(Cl)cc3)c3ccc(Cl)cc3)CC2)c1[N+](=O)[O-] [ML210] |  |  |  |  |  |  |  |  |  | competition of PPd-labelled protein bands by known ferroptosis inducers [11]: compete out the same protein bands
O=C(O)c1cc(/N=N/c2ccc(S(=O)(=O)Nc3ccccn3)cc2)ccc1O [sulfasalazine] |  |  |  |  |  |  |  |  |  | competition of PPd-labelled protein bands by known ferroptosis inducers [11]: did not show any significant competition
C#CCCC(=O)Nc1ccc(C(=O)c2ccc(NC(=O)CO/N=C3\CC(c4csc(Br)n4)=C(C)C3O)cc2)cc1 (stereo not drawn) [NPe, (E)-N-(4-(4-(2-(((4-(2-Bromothiazol-4-yl)-2-hydroxy-3-methylcyclopent-3-en-1-ylidene)amino)oxy)acetamido)benzoyl)phenyl)pent-4-ynamide] | > 20 µM | > 20 µM | > 20 µM |  |  |  |  |  |  | 
C#Cc1nc(C2=C(C)C(NC(=O)c3cc4ccc(N(CC)CC)cc4oc3=O)CC2)cs1 (stereo not drawn) [PPa, 7-(Diethylamino)-N-(3-(2-ethynylthiazol-4-yl)-2-methylcyclopent-2-en-1-yl)-2-oxo-2H-chromene-3-carboxamide] | 4.56 ± 1.43 µM | 4.58 ± 0.87 µM | 1.2 ± 1.03 µM |  |  |  |  |  |  | IC50 ([1]; cell line not given, value matches NCI-H522 of Table 3, read-out: IC50 (moderate cytotoxicity of PPa)): 4.56 ± 1.43 µM
C#Cc1nc(C2=C(C)C(O)/C(=N\OCc3ccccc3)C2)cs1 (stereo not drawn) [compound 21, (Z)-4-(2-Ethynylthiazol-4-yl)-2-hydroxy-3-methylcyclopent-3-en-1-one O-benzyl oxime] |  |  |  | 1.18 ± 0.8 µM | 2.17 ± 1.5 µM | 3.02 ± 1.7 µM | 0.93 ± 0.12 µM | > 20 µM | 13.4 ± 5.3 µM | 
CC1=C(c2csc(Br)n2)CCC1O (stereo not drawn) [compound 13, 3-(2-Bromothiazol-4-yl)-2-methylcyclopent-2-en-1-ol] | > 20 µM | > 20 µM | > 20 µM |  |  |  |  |  |  | 
C#Cc1nc(C2=C(C)C(O)/C(=N/O)C2)cs1 (stereo not drawn) [compound 19, (E)-4-(2-Ethynylthiazol-4-yl)-2-hydroxy-3-methylcyclopent-3-en-1-one oxime] |  |  |  | 4.68 ± 1.03 µM | > 20 µM | 5.55 ± 0.01 µM | 5.77 ± 0.67 µM | > 20 µM | 6.57 ± 0.5 µM | 
C#Cc1nc(C2=C(C)C(OC(=O)CC)/C(=N/OC(=O)CC)C2)cs1 (stereo not drawn) [compound 20b, (E)-3-(2-Ethynylthiazol-4-yl)-2-methyl-5-((propionyloxy)imino)cyclopent-2-en-1-yl propionate] |  |  |  | 0.12 ± 0.06 µM | 2.06 ± 0.54 µM | 0.59 ± 0.22 µM | 0.15 ± 0.02 µM | 13.4 ± 3.3 µM | 0.18 ± 0.03 µM | IC50 [1, 15]: 0.12 ± 0.06 µM; IC50 [2, 17]: 0.15 ± 0.02 µM; IC50 [7]: 2.52 ± 0.92 µM; IC50 [8]: 0.28 ± 0.04 µM; cell death at a single concentration [9]: killed only the cancer cell lines NCI-H522 and HT-1080

Source: patent publication US20260199297A1, “FERROPTOSIS INDUCERS TO TREAT CANCER” (The University of Toledo, priority 2022, published 2026)
